# Reference: patent US20120115742A1, “METHODS FOR IDENTIFICATION” (Cambridge Enterprise Limited, priority 2009, published 2012)
# pEC50: −log10 of the molar value. Like-named read-outs stand apart in the source and are kept apart here.
# Legend:
# Panc-2H4 cells = experiment: Human Panc-2H4 insulin suppression assay; assay type: cell-based; details: for Human Panc-2H4 insulin suppression assay Max effect: suppression compared to vehicle
# Description: (§1) Two different assays for “classical” sstr2 functions were adopted: (1) cultured foetal rat pituitary cells secreted growth hormone which is inhibited by sstr2 agonists in a dose-dependent fashion and (2) selected glucose-sensitive sub-clones of the human Panc-1 cell line secrete insulin which is inhibited by sstr2 agonists in a dose-dependent fashion.
# Glucose-sensitive sub-clones of the human Panc-1, a cell line derived from a pleiomorphic epithelioid carcinoma of the exocrine pancreas, were obtained essentially as described by Hamil et al. (2008) Biomed. Sci. Instrum. 44:441-6. Briefly, Panc-1 cells were subcultured in 24 well plates, and the medium was supplemented with an additional 5% glucose. […] The resulting sub-lines were then tested for glucose sensitivity by preparing wells of a 96-well plate (5×10^4 cells per well) which were then exposed to cultured medium containing a range of glucose concentrations (low glucose DMEM, DMEM, DMEM+1% glucose, DMEM+2.5% glucose and DMEM+5% glucose). After 24 hrs incubation, the conditioned medium was collected and assayed for insulin secretion by ELISA (Linco; cat# EZHI-14K) in accordance with the manufacturer's instructions. […] Further 96 well plates were prepared using Panc-2H4 (5×10^4 cells per well) in DMEM. After 24 hrs, the medium was switched to DMEM+5% glucose containing various test agents at various concentrations (triplicate wells per condition). After a further 24 hrs, the conditioned medium was harvested and the concentration of insulin was determined by ELISA as described above.
# (§2) Results were reported as the mean SD, expressed as the fold change from cells in the presence of vehicle only.
# THP-1 cells = experiment: MCP-1 induced THP-1 cell migration (Transwell/ChemoTx); details: for RATIO: Table 4, migration ED50 versus insulin ED50; for “Classical”:“BSCI” potency ratio, Human: THP-1 migration ED50 versus Panc-2H4 insulin ED50
# Description: Leukocyte migration was measured using the 96-well format micro Transwell® assay system from Neuroprobe (Gaithersburg, Md., USA). In principle, this assay consists of two chambers separated by a porous membrane. The chemoattractant is placed in the lower compartment and the cells are placed in the upper compartment.
# First, the cell suspension to be placed in the upper compartment was prepared. The THP-1 cells were pelleted by centrifugation (770×g; 4 mins) and washed with Geys Balanced Salt Solution with 1 mg/ml BSA (GBSS+BSA). This wash was then repeated, and the cells re-pelleted before being resuspended in a small volume of GBSS+BSA for counting, for example using a standard haemocytometer.
# This ensured that there were 100,000 THP-1 cells in each 25 μl of the solution to be placed in the upper chamber of the plate.
# To the third pot, GBSS+BSA plus vehicle as appropriate was added so that the volumes in three pots are equal, acting as a control.
# Next, the chemoattractant solution to be placed in the lower compartment was prepared. […] This solution was divided into three pots, as for the cell suspension. To one pot, the BSCI was added to the same final concentration as was added to the cell suspension, in the second pot the BSCI and the sstr2 antagonist were both added at the same concentration as previously added to the cell suspension, while to the remaining pot GBSS+BSA plus vehicle as appropriate was added so that the volumes in the three pots were equal.
# Once the chemoattractant solutions for the lower wells and cell solutions for the upper chambers were prepared, the migration chamber was assembled. 29 μl of the appropriate chemoattractant solution was placed into the lower well of the chamber. Assays were performed with at least triplicate determinations of each condition. Once all the lower chambers were filled, the porous membrane was applied to the chamber in accordance with the manufacturer's instructions. Finally, 25 μl of the appropriate cell solution was applied to each upper chamber. A plastic lid was placed over the entire apparatus to prevent evaporation.
# The assembled chamber was incubated at 37° C., 5% CO2, for 2 hours.
# At the end of the incubation, the liquid cell suspension was gently removed from the upper chamber, 20 μl of ice-cold 20 mM EDTA in PBS was added to the upper chamber, and the apparatus was incubated at 4° C. for 15 mins. This procedure caused any cells adhering to the underside of the membrane to fall into the lower chamber.
# After this incubation the filter was carefully flushed with GBSS+BSA to wash off the EDTA, and then the filter was removed.
# The number of cells migrated into the lower chamber under each condition can then be determined by a number of methods, including direct counting, labelling with fluorescent or radioactive markers or through the use of a vital dye. Typically, we utilised the vital dye MTT. 3 μl of stock MTT solution were added to each well, and then the plate was incubated at 37° C. for 1-2 hours during which time dehydrogenase enzymes within the cells converted the soluble MTT to an insoluble blue formazan product that could be quantified spectrophotometrically.
# In parallel, an 8-point standard curve was set up. Starting with the number of cells added to each upper chamber (100,000) and going down in 2-fold serial dilutions in GBSS+BSA, the cells were added to a plate in 25 with 3 μl of MTT stock solution added. The standard curve plate was incubated along side the migration plate. At the end of this incubation, the liquid was carefully removed from the lower chambers, taking care not to disturb the precipitated formazan product.
# The MCP-1 stimulated migration was determined by subtracting the average number of cells that reached the lower compartment in wells where no MCP-1 was added from the average number of cells that reached the lower compartment where MCP-1 was present at 25 ng/ml.
# sstr2 = target: T1, sstr2 (Homo sapiens, UniProt P30874); experiment: [3H]-BN83250 equilibrium binding to THP-1 cells (Scatchard/competition)
# T1 construct: with 1×10^6 THP-1 cells in Gey's Balanced Salt Solution, 10 nM [^3H]-BN83250; endogenous in cells; host or cells: THP-1 cells (intact cells, 4 °C)
# T1 sequence (P30874 whole entry): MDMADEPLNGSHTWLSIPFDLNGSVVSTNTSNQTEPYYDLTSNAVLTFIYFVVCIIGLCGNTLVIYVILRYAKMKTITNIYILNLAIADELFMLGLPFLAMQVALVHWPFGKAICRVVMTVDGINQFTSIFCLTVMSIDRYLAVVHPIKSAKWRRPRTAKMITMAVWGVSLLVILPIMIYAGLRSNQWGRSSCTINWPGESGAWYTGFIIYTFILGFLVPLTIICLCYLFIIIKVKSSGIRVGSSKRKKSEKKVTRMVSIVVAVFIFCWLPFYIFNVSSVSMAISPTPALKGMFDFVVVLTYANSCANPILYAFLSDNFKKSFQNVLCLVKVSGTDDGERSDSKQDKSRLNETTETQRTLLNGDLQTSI
# Description: Methods: [^3H]-BN83250 was synthesesized from (S,E)-3-(2′,2′-dimethyldodec-4′-enoylamino)-caprolactam by catalytic hydrogenation using tritium gas over a palladium catalyst (CRB Ltd, Cleveland, UK), yielding the tritiated product at a concentration of 270 μM in ethanol with a specific activity of 220Ci/mmol. The (S,E)-3-(2′,2′-dimethyldodec-4′-enoylamino)-caprolactam was prepared as follows: (S,S)-3-amino-caprolactam hydro-pyrrolidine-5-carboxylate (10 mmol) and Na2CO3 (30 mmol) in water (30 ml) were added to a solution of 2,2-dimethyl-dodec-4-enoyl chloride (10 mmol) in dichloromethane (30 ml) at ambient temperature and the reaction was stirred for 12 hours. The organic layer was then separated and the aqueous phase was extracted with additional dichloromethane (2×25 ml). The combined organic layers were dried over Na2CO3 and reduced in vacuo. The residue was purified by silica column chromatography (1:1 EtOAc:hexanes to EtOAc) to give (S,E)-3-(2′,2′-dimethyl-dodec-4′-enoyl)amino-caprolactam as a colourless oil (2.12 g, 63%). The radiolabelled compound was stored in the dark at 4° C. until required. Prior to use the specific activity was adjusted by addition of unlabelled BN83250.
# For the analysis of binding, individual reactions were set up (in triplicate for each condition), with 1×10^6 THP-1 cells in Gey's Balanced Salt Solution, 10 nM [^3H]-BN83250 (at 50 Ci/mmol) and various concentrations of (S)-3(2′2′-dimethylpropionoylamino)-tetrahydropyridin-2-one (10 pM to 10 μM). Excess (100 μM) unlabelled BN83250 was used to determine the level of non-specific binding. After 2 hours at 4° C. (conditions previously shown to achieve equilibrium binding, and which prevent uptake of the radioligand that would result in an over-estimate of binding) excess label was washed away by centrifugation (3 washes with 5 ml of Gey's Balanced Salt Solution) and the bound radioactivity was determined by scintillation counting of the solubilised cell pellet.
# Hits from this assay were confirmed using conventional Scatchard analysis, exactly as described in Example 4 above.
# [1] = target: type 2 somatostatin receptor (sstr2), rat (rat) (UniProt P30680); experiment: cell-based or functional assay
# type 2 somatostatin receptor (sstr2), rat (rat), sequence (P30680 whole entry): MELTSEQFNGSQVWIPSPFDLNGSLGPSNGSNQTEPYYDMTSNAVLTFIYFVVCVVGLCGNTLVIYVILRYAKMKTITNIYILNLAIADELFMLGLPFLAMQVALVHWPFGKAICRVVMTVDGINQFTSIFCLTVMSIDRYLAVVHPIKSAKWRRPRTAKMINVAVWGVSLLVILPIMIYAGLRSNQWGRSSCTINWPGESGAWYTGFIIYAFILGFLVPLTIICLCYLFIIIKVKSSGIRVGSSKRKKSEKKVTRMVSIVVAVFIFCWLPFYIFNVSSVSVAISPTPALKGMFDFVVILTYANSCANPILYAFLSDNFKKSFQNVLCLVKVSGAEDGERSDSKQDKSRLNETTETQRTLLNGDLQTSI
# [2] = target: type 2 somatostatin receptor (sstr2), human (human) (UniProt P30874); experiment: cell-based or functional assay
# type 2 somatostatin receptor (sstr2), human (human), sequence (P30874 whole entry): as the sequence (P30874 whole entry) above
# fetal rat pituicytes = experiment: Rat pituicyte GH suppression assay; assay type: cell-based; details: Table 3; suppression compared to vehicle
# Description: as §1
# Methods: Cultures of fetal rat pituicytes were established exactly as previously described (Murray et al. (2004) J. Clin. Endocrinol. Metab. 89:3027-32) by enzymatic dispersion. After 48 hrs in low glucose DMEM plus 10% FCS, cells in 48 well plates (5×10^4 cells per well) were washed for 4 hrs in serum-free DMEM and then incubated with test agents at various concentrations for a further 24 hrs in serum-free DMEM. At the end of this period, the conditioned medium was harvested, any cell debris removed by centrifugation and assayed for […] using a commercially available ELISA (Linco; cat# EZRMGH-45K) in accordance with the manufacturer's instructions.
# as §2
# TNF-alpha = experiment: Sub-lethal endotoxemia model, serum TNF-alpha after LPS; assay type: in vivo, mouse; details: very high / highest doses, 2 hours post LPS
# Description: We selected the sub-lethal endotoxemia model in mouse, because this has been well characterised in our laboratory (see for example Fox et al. (2002) J. Med. Chem. 45:360-70; Fox et al. (2005) J. Med. Chem. 48:867-74). The extent of systemic inflammation in response to a single intraperitoneal injection of bacterial lipopolysaccharide (LPS) can be estimated by measuring serum TNF-alpha 2 hours post challenge.
# Methods: Mice (CD1 strain; adult males; 6 per group) were treated with BSCI (in an appropriate vehicle) or with vehicle alone by an appropriate route. […] Simultaneously, one set of mice at each BSCI concentration received BIM 23627 at 4 mg/animal (120 mg/kg) by sub-cutaneous injection (a treatment condition known to suppress classical sstr2-mediated signalling, such as GH release, in rats; Tulipano et al. (2002) 143:1218-24). Between 30 mins and 1 hour after dosing (a period when a maximal plasma concentration of BSCI has been achieved), the inflammatory challenge was elicited by intraperitoneal injection of 750 μg of LPS (Sigma; L4130 lot#024K4077; 900,000 EU/mg).
# After a further 2 hours, the animals were sacrificed by CO2 asphyxiation, and blood was drawn by cardiac puncture. Serum was prepared by conventional methods, and the level of TNF-alpha in serum was measured using an ELISA (R&D Systems; Murine Quantikine code# MTA00) performed in accordance with the manufacturer's instructions.
# [3] = tested on: rat peripheral blood leukocytes; experiment: Rat chemokine-induced PBMC migration assay; assay type: cell-based
# Description: Similarly, where human Panc-2H4 cells are used to determine the effect of agents on classical sstr2 targets, the result is compared with the effect of the same agents on chemokine-induced migration of human THP-1 cells. […] For this reason, the ratio of “classical” to “BSCI” activity in Table 3 is calculated separately for rat and human.
# [4] = Table 4, 0.01-1,000 nM, 1% DMSO, read-out: Panc-2H4 insulin suppression assay (“classical” target) ED50
compound,measurement,setting,value
CC(c1c[nH]c2ccccc12)C(NC(=O)NC1CCCNC1=O)C(=O)NCC1CCCC(CN)C1 (stereo not shown) [Compound C],Panc-2H4 insulin suppression assay Max Effect,Panc-2H4 cells; Table 4,56%
same,RATIO,THP-1 cells,0.02
CC1(C(=O)N[C@H]2CCCCNC2=O)CCCCC1 [(S)-3-(1′-methylcyclohexyl-1′-carbonylamino)-caprolactam],competition with BN83250 binding to sstr2,sstr2,compete with BN83250 binding to sstr2 to a similar extent
somatostatin-28 (from UniProt P61278 89-116) (peptide),Rat chemokine-induced PBMC migration assay ED50,[1],1.2 nM
same,Rat chemokine-induced PBMC migration assay Max effect,[1],44%
same,Rat pituicyte GH suppression assay ED50,[1],0.17 nM
same,Rat pituicyte GH suppression assay Max effect,[1],73%
same,Human Panc-2H4 insulin suppression assay ED50,[2],0.14 nM
same,Human Panc-2H4 insulin suppression assay Max effect,[2],51%
same,Human chemokine-induced THP-1 migration assay ED50,[2],0.9 nM
same,Human chemokine-induced THP-1 migration assay Max effect,[2],38%
"C[C@@H](c1c[nH]c2ccccc12)[C@@H](NC(=O)N1CCC(n2c(=O)[nH]c3ccccc32)CC1)C(=O)NC[C@@H]1CCC[C@H](CN)C1 [L-779,976]",Rat pituicyte GH suppression assay Max effect,fetal rat pituicytes,55%
same,Human Panc-2H4 insulin suppression assay Max effect,Panc-2H4 cells; Table 3,40%
same,Panc-2H4 insulin suppression assay Max Effect,Panc-2H4 cells; Table 4,40%
same,Panc-2H4 insulin suppression assay Max Effect,Panc-2H4 cells; Table 5,40%
same,"“Classical”:“BSCI” potency ratio, Human",THP-1 cells,27
CC(c1c[nH]c2ccccc12)C(NC(=O)N1CC(=O)NC(=O)C1)C(=O)NCC1CCCC(CN)C1 (stereo not shown) [Compound B],Panc-2H4 insulin suppression assay Max Effect,Panc-2H4 cells; Table 4,52%
same,RATIO,THP-1 cells,1.3
C[C@@H]1C[C@H]2[C@@H]3CCC4=CC(=O)C=C[C@]4(C)[C@@]3(F)[C@@H](O)C[C@]2(C)[C@@]1(O)C(=O)CO [dexamethasone],inhibition of serum TNF-alpha,TNF-alpha,more than 90%
CC(=O)NC(=O)C(NC(=O)N1CCC(n2c(=O)[nH]c3ccccc32)CC1)C(C)c1c[nH]c2ccccc12 (stereo not shown) [E],Panc-2H4 insulin suppression assay Max Effect,Panc-2H4 cells; Table 4,<10%
same,pEC50,Panc-2H4 cells; [4],< 6.00
SST-28: alternatively processed sst28 natural ligand,Max effect (maximum inhibition),"THP-1 cells; Table 2, at the highest dose tested (1-10 μM)",40-60%
CC(=O)NC(CC(N)=O)C(=O)NC(C(=O)NCC1CCCC(CN)C1)C(C)c1c[nH]c2ccccc12 (mixture of isomers) [D],Panc-2H4 insulin suppression assay Max Effect,Panc-2H4 cells; Table 4,37%
BIM58187 (peptide),Rat chemokine-induced PBMC migration assay ED50,[1],15 nM
same,Rat chemokine-induced PBMC migration assay Max effect,[1],100%
same,Rat pituicyte GH suppression assay ED50,[1],550 nM
same,Rat pituicyte GH suppression assay Max effect,[1],42%
same,Human Panc-2H4 insulin suppression assay ED50,[2],> 1000 nM
same,Human Panc-2H4 insulin suppression assay Max effect,[2],< 10%
same,Human chemokine-induced THP-1 migration assay ED50,[2],6.9 nM
same,Human chemokine-induced THP-1 migration assay Max effect,[2],100%
CC(C)(C)C(=O)N[C@H]1CCCNC1=O,Hill Slope,sstr2; competition with [3H]-BN83250,approximately −1.0
NCC1CCCC(CNC(=O)C(Cc2ccccc2)NC(=O)N2CCC(n3c(=O)[nH]c4ccccc43)CC2)C1 (stereo not shown) [F],Panc-2H4 insulin suppression assay Max Effect,Panc-2H4 cells; Table 4,<10%
same,pEC50,Panc-2H4 cells; [4],< 6.00
"O=C1NCCCC[C@@H]1NC(=O)C12CC3CC(CC(C3)C1)C2 [BN83470, (S)-3-(admantane-1′-carbonylamino)-caprolactam]",Rat pituicyte GH suppression assay Max effect,fetal rat pituicytes,56%
same,pEC50,"Panc-2H4 cells; Table 3, read-out: Human Panc-2H4 insulin suppression assay ED50",< 6.00
same,Human Panc-2H4 insulin suppression assay Max effect,Panc-2H4 cells; Table 3,<10%
same,inhibition of insulin secretion by Panc-2H4,Panc-2H4 cells; highest concentrations tested,None of these agents inhibited insulin secretion
same,competition with BN83250 binding to sstr2,sstr2,compete with BN83250 binding to sstr2 to a similar extent
same,"“Classical”:“BSCI” potency ratio, Rat",[3]; PBMC migration ED50 versus pituicyte GH ED50,0.0008
same,Rat chemokine-induced PBMC migration assay Max effect,[3]; Table 3,100%
same,"“Classical”:“BSCI” potency ratio, Human",THP-1 cells,<0.00008
same,Human chemokine-induced THP-1 migration assay Max effect,THP-1 cells; Table 3,100%
